Data set [1] has as its system MAPK and PI3K signaling in A375 cells (BRAF^V600E). As to the kind of experiment: Western blot of MAPK and PI3K signaling in A375 cells. It is filed as cell-based. On the technique in general: A western blot detects proteins with antibodies after separation by electrophoresis.
Method: (§1) Western Blotting: Cells were seeded in 24-well poly-D-lysine coated plates and treated with the indicated peptides the next day. Following incubation, 100 μl of 1X Bolt™ LDS sample buffer supplemented with NuPAGE® sample reducing agent was added. Wells were scrapped using wide orifice
bath sonicator (QSonica).
(§2) onto nitrocellulose membranes using the Trans-Blot® Turbo™ semi-dry sy s te m ( Bio -rad), and blocked for 1 hour at room temperature with tris-buffered saline (TBS) Odyssey blocking buffer (Li- Cor). Blots were probed with the appropriate primary antibodies overnight at 4°C in Odyssey blocking buffer supplemented with 0.1% Tween-20, followed by the secondary antibodies IRDye® 680RD donkey anti-mouse IgG or IRDye® 800CW donkey anti-rabbit IgG (Li- Cor) for 1 hour at room temperature.
(§3) Fluorescent signals were imaged and quantified using Odyssey® CLx. Primary antibodies used were:
Data set [2] relates to MAPK and PI3K signaling in SK-MEL-28 cells (BRAF^V600E). As to the kind of experiment: Western blot of MAPK and PI3K signaling in SK-MEL-28 cells. It counts as cell-based.
Method: as §1
bath sonicator (QSonica).
as §2, §3
The nature of a further data set: in vitro. The following applies: human.
For another data set, the system named is rat mast cells. As to the kind of experiment: Ex vivo rat mast cell degranulation and histamine release assay. The following applies: for rMCD histamine release threshold: lowest concentration at which histamine release was observed, rat peritoneal mast cells, 30 min; for activation of mast cell degranulation (histamine release), in words: ex vivo, rat mast cells.

Data set [3] concerns pERK and pAKT in AsPC-1 cells. As to the kind of experiment: Western blot of KRAS signaling (pERK, pAKT) in AsPC-1 cells. It counts as cell-based. The conditions noted are these: 1 hour and 16 hour time-points.
Method: as §1
bath sonicator (QSonica).
as §2, §3
(D14E12) (Cell Signaling Technology, #8 24 2), phospho-IκBα (Ser32) (Cell Signaling Technology, #2 85 9) , IκBα (L35A5) (Cell Signaling Technology, #4 81 4) , NanoLuc (Promega, N7000) and pan-RAS (Sigma,
mM PMSF and Co mplete™ EDTA-free protease inhibitor cocktail (Roche) for 30 min with intermittent

What is called half-life is the time needed for the level to fall by half in the phase considered.

The structures appear in SMILES notation.

Method for rat mast cells: The reported rat mast cell degranulation (rMCD) value in Table 4 is a threshold for the lowest concentration at which a two-fold change in histamine release was observed.
In Vitro Rat M ast Cell Degranulation and H istamine Release Ass ess m ent: Peritoneal lavage was isolated
from Wister- Han rats as described in literature. In brief, animals were anesthetized with xylene followed
by an injection of about 10 mL of Tyrode buffer (12 mM NaHCO3, 127 mM NaCl, 5 mM KCl, 0.5 mM
NaH2PO4, 1 mM MgCl2, 5 mM Glucose and 10 mM HEPES, pH 7.4) into the peritoneal cavity. After a
gentle abdomen massage, peritoneal lavage was collected and centrifuged at 350 x g for 5 minutes. Cell
pellets were resuspended in Tyrode buffer with 10% heat inactivated rat serum to reach a final
Freshly isolated rat peritoneal cells were aliquoted to a 96 well tissue-
culture plate (100 µL per well).
peptides for 30 minutes at 37°C. After incubation, the plate was centrifuged at 350 x g for 2 minutes at
room temperature. Supernatant were collected and histamine concentration was measured by ELISA
(Neogen, Lansing, MI) following vendor’s instructions. Amount of histamine in the supernatant was
presented as ng/mL. A detection of histamine release was defined as the histamine concentration in
from 10 vehicle-control treated samples from the same animal). The lowest concentration that a

Turning to `Cc1ccc(NC(=O)c2cccc(C(C)(C)C#N)c2)cc1Nc1ccc2ncn(C)c(=O)c2c1` [AZ628, reference compound], the “inhibition of MAPK signaling in A375” value in data set [1] was “inhibited MAPK signaling”. The “inhibition of MAPK signaling in SK-MEL-28” value (shortened to “inhibition … in SK-MEL-28”) in data set [2] is on record as “inhibited MAPK signaling”.
For `CC[C@H](C)[C@@H]1NC(=O)[C@H](Cc2ccc(O)cc2)NC(=O)[C@H](CC(C)C)NC(=O)[C@]2(C)CCCN2C(=O)[C@H](NC(=O)[C@H](CCCNC(=N)N)NC(=O)[C@H](CCCNC(=N)N)NC(=O)[C@H](CCCCN=[N+]=[N-])NC(C)=O)CSCSC[C@@H](C(=O)N[C@@H](CCCNC(=N)N)C(=O)N[C@@H](CCCNC(=N)N)C(N)=O)NC(=O)[C@H](C(C)C)NC(=O)[C@@H]2CCCN2C(=O)[C@H](CC(=O)O)NC(=O)[C@H](Cc2ccc(O)cc2)NC(=O)[C@H](CO)NC1=O` [Compound 14], the half-life at 1 µM in the data set “in vitro” (HeLa cell homogenate) was 142 min.
As to `CC[C@H](C)[C@@H]1NC(=O)[C@H](Cc2ccc(O)cc2)NC(=O)[C@](C)(CC(C)C)NC(=O)[C@@H]2CCCN2C(=O)[C@H](NC(=O)[C@H](CCCNC(=N)N)NC(=O)[C@H](CCCNC(=N)N)NC(=O)[C@H](CCCCN=[N+]=[N-])NC(C)=O)CSCSC[C@@H](C(=O)N[C@@H](CCCNC(=N)N)C(=O)N[C@@H](CCCNC(=N)N)C(N)=O)NC(=O)[C@H](C(C)C)NC(=O)[C@@H]2CCCN2C(=O)[C@H](CC(=O)O)NC(=O)[C@H](Cc2ccc(O)cc2)NC(=O)[C@H](CO)NC1=O` [Compound 15], in the data set “in vitro” (HeLa cell homogenate), the half-life at 1 µM came out at 114 min.
For `CC[C@H](C)[C@@H]1NC(=O)[C@](C)(Cc2ccccc2)NC(=O)[C@H](CC(C)C)NC(=O)[C@@H]2CCCN2C(=O)[C@H](NC(=O)[C@H](CCCNC(=N)N)NC(=O)[C@H](CCCNC(=N)N)NC(=O)[C@H](CCCCN=[N+]=[N-])NC(C)=O)CSCSC[C@@H](C(=O)N[C@@H](CCCNC(=N)N)C(=O)N[C@@H](CCCNC(=N)N)C(N)=O)NC(=O)[C@H](C(C)C)NC(=O)[C@@H]2CCCN2C(=O)[C@H](CC(=O)O)NC(=O)[C@H](Cc2ccc(O)cc2)NC(=O)[C@H](CO)NC1=O` [Compound 16], the half-life at 1 µM in “in vitro” (HeLa cell homogenate) was over 373 min.
Still for that read-out and setting: the same measure for `CC[C@H](C)[C@@H]1NC(=O)[C@H](Cc2ccc(O)cc2)NC(=O)[C@H](CC(C)C)NC(=O)[C@@H]2CCCN2C(=O)[C@H](NC(=O)[C@H](CCCNC(=N)N)NC(=O)[C@H](CCCNC(=N)N)NC(=O)[C@H](CCCCN=[N+]=[N-])NC(C)=O)CSCSC[C@@H](C(=O)N[C@@H](CCCNC(=N)N)C(=O)N[C@@H](CCCNC(=N)N)C(N)=O)NC(=O)[C@H](C(C)C)NC(=O)[C@@H]2CCCN2C(=O)[C@H](CC(=O)O)NC(=O)[C@H](Cc2ccc(O)cc2)NC(=O)[C@](C)(CO)NC1=O` [Compound 17]: 154 min; for `CC[C@H](C)[C@@H]1NC(=O)[C@H](Cc2ccc(O)cc2)NC(=O)[C@H](CC(C)C)NC(=O)[C@@H]2CCCN2C(=O)[C@H](NC(=O)[C@H](CCCNC(=N)N)NC(=O)[C@H](CCCNC(=N)N)NC(=O)[C@H](CCCCN=[N+]=[N-])NC(C)=O)CSCSC[C@@H](C(=O)N[C@@H](CCCNC(=N)N)C(=O)N[C@@H](CCCNC(=N)N)C(N)=O)NC(=O)[C@H](C(C)C)NC(=O)[C@@H]2CCCN2C(=O)[C@H](CC(=O)O)NC(=O)[C@](C)(Cc2ccc(O)cc2)NC(=O)[C@H](CO)NC1=O` [Compound 18]: 71 min.
In the case of `CC[C@H](C)[C@@H]1NC(=O)[C@H](Cc2ccc(O)cc2)NC(=O)[C@H](CC(C)C)NC(=O)[C@@H]2CCCN2C(=O)[C@H](NC(=O)[C@H](CCCNC(=N)N)NC(=O)[C@H](CCCNC(=N)N)NC(=O)[C@H](CCCCN=[N+]=[N-])NC(C)=O)CSCSC[C@@H](C(=O)N[C@@H](CCCNC(=N)N)C(=O)N[C@@H](CCCNC(=N)N)C(N)=O)NC(=O)[C@H](C(C)C)NC(=O)[C@@H]2CCCN2C(=O)[C@](C)(CC(=O)O)NC(=O)[C@H](Cc2ccc(O)cc2)NC(=O)[C@H](CO)NC1=O` [Compound 19], the half-life at 1 µM in the data set “in vitro” (HeLa cell homogenate) was determined as 41 min.
In the data set “in vitro” (HeLa cell homogenate), `CC[C@H](C)[C@@H]1NC(=O)[C@H](Cc2ccc(O)cc2)NC(=O)[C@H](CC(C)C)NC(=O)[C@@H]2CCCN2C(=O)[C@H](NC(=O)[C@H](CCCNC(=N)N)NC(=O)[C@H](CCCNC(=N)N)NC(=O)[C@H](CCCCN=[N+]=[N-])NC(C)=O)CSCSC[C@@H](C(=O)N[C@@H](CCCNC(=N)N)C(=O)N[C@@H](CCCNC(=N)N)C(N)=O)NC(=O)[C@H](C(C)C)NC(=O)[C@]2(C)CCCN2C(=O)[C@H](CC(=O)O)NC(=O)[C@H](Cc2ccc(O)cc2)NC(=O)[C@H](CO)NC1=O` [Compound 20] gave a half-life at 1 µM of 134 min.
In the data set “in vitro” (HeLa cell homogenate), `CC[C@H](C)[C@@H]1NC(=O)[C@H](Cc2ccc(O)cc2)NC(=O)[C@H](CC(C)C)NC(=O)[C@@H]2CCCN2C(=O)[C@H](NC(=O)[C@H](CCCNC(=N)N)NC(=O)[C@H](CCCNC(=N)N)NC(=O)[C@H](CCCCN=[N+]=[N-])NC(C)=O)CSCSC[C@@](C)(C(=O)N[C@@H](CCCNC(=N)N)C(=O)N[C@@H](CCCNC(=N)N)C(N)=O)NC(=O)[C@H](C(C)C)NC(=O)[C@@H]2CCCN2C(=O)[C@H](CC(=O)O)NC(=O)[C@H](Cc2ccc(O)cc2)NC(=O)[C@H](CO)NC1=O` [Compound 22] yielded a half-life at 1 µM of 120 min.
In the case of `CC[C@H](C)[C@@H]1NC(=O)[C@H](Cc2ccc(O)cc2)NC(=O)[C@H](CC(C)C)NC(=O)[C@@H]2CCCN2C(=O)[C@H](NC(=O)[C@H](CCCNC(=N)N)NC(=O)[C@H](CCCNC(=N)N)NC(=O)[C@H](CCCNC(=N)N)NC(=O)[C@H](CCCCN=[N+]=[N-])NC(C)=O)CSCSC[C@@H](C(=O)N[C@@H](CCCNC(=N)N)C(=O)N[C@@H](CCCNC(=N)N)C(=O)N[C@@H](CCCNC(=N)N)C(N)=O)NC(=O)[C@H](C(C)C)NC(=O)[C@@H]2CCCN2C(=O)[C@H](CC(=O)O)NC(=O)[C@H](Cc2ccc(O)cc2)NC(=O)[C@H](CO)NC1=O` [Compound 23], the “rMCD histamine release threshold” value in the data set on rat mast cells is at least 0.14 µM.
Turning to `CC[C@H](C)[C@@H]1NC(=O)[C@H](Cc2ccc(O)cc2)NC(=O)[C@H](CC(C)C)NC(=O)[C@@H]2CCCN2C(=O)[C@H](NC(=O)[C@H](CCCCN=[N+]=[N-])NC(C)=O)CSCSC[C@@H](C(=O)N[C@@H](CCCNC(=N)N)C(N)=O)NC(=O)[C@H](C(C)C)NC(=O)[C@@H]2CCCN2C(=O)[C@H](CC(=O)O)NC(=O)[C@H](Cc2ccc(O)cc2)NC(=O)[C@H](CO)NC1=O` [Compound 24], in the data set with rat mast cells, the “activation of mast cell degranulation (histamine release), in words” value (shortened to “activation of mast cell degranulation”) was “free from this potential liability” and the “rMCD histamine release threshold” value is over 100 µM.
`CC[C@H](C)[C@@H]1NC(=O)[C@H](Cc2ccc(O)cc2)NC(=O)[C@H](CC(C)C)NC(=O)[C@@H]2CCCN2C(=O)[C@H](NC(=O)[C@H](CCCCN=[N+]=[N-])NC(C)=O)CSCSC[C@@H](C(N)=O)NC(=O)[C@H](C(C)C)NC(=O)[C@@H]2CCCN2C(=O)[C@H](CC(=O)O)NC(=O)[C@H](Cc2ccc(O)cc2)NC(=O)[C@H](CO)NC1=O` [Compound 25]: in the data set on rat mast cells, the “activation of mast cell degranulation” value is “free from this potential liability” and the “rMCD histamine release threshold” value is over 100 µM.
Turning to `N#CC(=C(/N)Sc1ccccc1N)/C(C#N)=C(/N)Sc1ccccc1N` [Compound U0126, reference compound], the “inhibition of MAPK signaling in A375” value in data set [1] is on record as “inhibited MAPK signaling”. Moreover, in data set [2], the “inhibition … in SK-MEL-28” value was “inhibited MAPK signaling”.
For the compound `CC[C@H](C)[C@@H]1NC(=O)[C@H](Cc2ccc(O)cc2)NC(=O)[C@H](CC(C)C)NC(=O)[C@@H]2CCCN2C(=O)[C@H](NC(=O)[C@H](CCCNC(=N)N)NC(=O)[C@H](CCCNC(=N)N)NC(=O)[C@H](CCCCN=[N+]=[N-])NC(C)=O)CSCSC[C@@H](C(=O)N[C@@H](CCCNC(=N)N)C(=O)N[C@@H](CCCNC(=N)N)C(N)=O)NC(=O)[C@H](C(C)C)NC(=O)[C@@H]2CCCN2C(=O)[C@H](CC(=O)O)NC(=O)[C@H](Cc2ccc(O)cc2)NC(=O)[C@H](CO)NC1=O` [MP-1687], the “rMCD histamine release threshold” value in the data set on rat mast cells is at least 3.7 µM. Also, the half-life at 1 µM in “in vitro” (tissue homogenate) was 37 min.
Take `CC[C@H](C)[C@@H]1NC(=O)[C@H](Cc2ccc(O)cc2)NC(=O)[C@H](CC(C)C)NC(=O)[C@@H]2CCCN2C(=O)[C@H](NC(=O)[C@H](CCCNC(=N)N)NC(=O)[C@H](CCCNC(=N)N)NC(=O)[C@H](CCCNC(=N)N)NC(=O)[C@H](CCCNC(=N)N)NC(=O)[C@H](CCCCN=[N+]=[N-])NC(C)=O)CSCSC[C@@H](C(=O)N[C@@H](CCCNC(=N)N)C(=O)N[C@@H](CCCNC(=N)N)C(=O)N[C@@H](CCCNC(=N)N)C(=O)N[C@@H](CCCNC(=N)N)C(N)=O)NC(=O)[C@H](C(C)C)NC(=O)[C@@H]2CCCN2C(=O)[C@H](CC(=O)O)NC(=O)[C@H](Cc2ccc(O)cc2)NC(=O)[C@H](CO)NC1=O` [MP-6483]: the “inhibition of KRAS signaling (pERK, pAKT) by Western blot” value in data set [3] is listed as “display cell-based inhibition”. Besides, the “rMCD histamine release threshold” value with rat mast cells was at least 0.14 µM.
Turning to `CC[C@H](C)[C@@H]1NC(=O)[C@H](Cc2ccc(O)cc2)NC(=O)[C@H](CC(C)C)NC(=O)[C@@H]2CCCN2C(=O)[C@H](NC(=O)[C@@H](CCCNC(=N)N)NC(=O)[C@@H](CCCNC(=N)N)NC(=O)[C@@H](CCCNC(=N)N)NC(=O)[C@@H](CCCNC(=N)N)NC(=O)[C@H](CCCCN=[N+]=[N-])NC(C)=O)CSCSC[C@@H](C(=O)N[C@H](CCCNC(=N)N)C(=O)N[C@H](CCCNC(=N)N)C(=O)N[C@H](CCCNC(=N)N)C(=O)N[C@H](CCCNC(=N)N)C(N)=O)NC(=O)[C@H](C(C)C)NC(=O)[C@@H]2CCCN2C(=O)[C@@H](CC(=O)O)NC(=O)[C@H](Cc2ccc(O)cc2)NC(=O)[C@H](CO)NC1=O` [MP-9658, Ac-K(N3)-rrrr-cyclo(c(methylene)PLYISYdPVC)-rrrr-NH2], the “inhibition of MAPK signaling in A375” value in data set [1] is “inactive”. In data set [2], the “inhibition … in SK-MEL-28” value is “inactive”.
On to `CC[C@H](C)[C@@H]1NC(=O)[C@H](Cc2ccc(O)cc2)NC(=O)[C@H](CC(C)C)NC(=O)[C@@H]2CCCN2C(=O)[C@H](NC(=O)[C@H](CCCNC(=N)N)NC(=O)[C@H](CCCCN=[N+]=[N-])NC(C)=O)CSCSC[C@@H](C(=O)N[C@@H](CCCNC(=N)N)C(N)=O)NC(=O)[C@H](C(C)C)NC(=O)[C@@H]2CCCN2C(=O)[C@H](CC(=O)O)NC(=O)[C@H](Cc2ccc(O)cc2)NC(=O)[C@H](CO)NC1=O` [MP-9903], for which, in the data set on rat mast cells, the “activation of mast cell degranulation” value is listed as “free from this potential liability” and the “rMCD histamine release threshold” value is over 100 µM.

These data come from publication PMC8672774, “Discovery of cell active macrocyclic peptides with on-target inhibition of KRAS signaling” (Chemical Science, 2021).
